Test results published in PubChem BioAssay AID1845205 (Molecular Pharmacology Branch, DTP, NCI, 2023).
Values joined by “and” are separate entries in the source; they are usually repeats but may differ in a detail not shown here. Equal entries are not always repeated.

Tested on: MPNST multicellular tumor spheroids, viability % test/control
Experiment: Anticancer human tumor MPNST cell line growth inhibition;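 further: spheroids exposed to agents for seven days after three days of growth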;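 on viability, T/C: luminescence signal used as surrogate for viable cell amount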
Details: for viability, T/C: stronger effect = lower value
Source text: Multicellular complex tumor spheroid response to DNA repair inhibitors in combination with DNA-damaging drugs
This study explores the anticancer activities of DNA-damaging drugs and inhibitors of DNA damage repair, both as single agents and in combinations. Complex tumor spheroids comprised of malignant cells, endothelial cells and mesenchymal stem cells served as an in vitro model for human solid tumors. This model system incorporates physiologically relevant features and patient-derived or established malignant cell lines with clinically relevant genetic alterations from many tumor types. Twenty-six patient-derived or established malignant cell lines were evaluated representing sarcoma, melanoma, small cell lung cancer (SCLC), non-small cell lung cancer (NSCLC), as well as bladder, ovarian and pancreatic cancers. The concentration ranges selected for each drug and investigational agent were based upon clinically achievable concentrations if the clinical Cmax of the agent was known.
Compounds. The drugs and compounds olaparib (NSC753686), talazoparib (NSC767125), berzosertib (NSC777718), elimusertib (NSC800525), nedisertib (NSC802822), VX-984 (NSC792969), AZD-1390 (NSC803789), temozolomide (NSC362856), topotecan (NSC609699), trabectedin (NSC813783), staurosporine (NSC755774), and gemcitabine (NSC613327) were obtained from the National Cancer Institute (NCI) Developmental Therapeutics Program Chemical Repository. The FDA-approved anticancer drug set is available from the Developmental Therapeutics Program at https://dtp.cancer.gov/organization/dscb/obtaining/available_plates.htm. […] The stock solutions were prepared in dimethyl sulfoxide (DMSO, Sigma-Aldrich, St. Louis, MO, cat. D2650) at 400-fold the tested concentration and stored at -70 degrees C. Prior to their use, the stock solutions were diluted in fresh medium and the final DMSO concentration in the assay was 0.25% (v/v). All drugs and investigational agents were tested over a range starting from a high concentration at or near the clinical Cmax and decreasing in half-log increments. If the clinical Cmax for an agent had not been determined, the highest concentration tested was 10 microM.
Cell Lines. The patient-derived cancer cell (PDC) lines: 156681-154-R-J1-PDC, 283228-195-R-J1-PDC, 287954-098-R-J1-PDC, 292921-168-R-J2-PDC, 349418-098-R-PDC, 425362-245-T-J1-PDC, 556581-035-R-J1-PDC, and BL0293-F563-PDC were received from the NCI Patient-Derived Models Repository (PDMR, https://pdmr.cancer.gov). The established cell lines HS-SY-2 (RRID:CVCL_8719), MPNST, and SYO-1 (RRID:CVCL_7146) were obtained from the Sloan Kettering Institute. The alveolar soft parts sarcoma cell line ASPS-1 (RRID:CVCL_S738) was established at the NCI and grown from internal seed stocks. The following established cell lines were purchased from the American Type Culture Collection (ATCC, Manassas, VA): G-401 (ATCC, cat. CRL-1441, RRID:CVCL_0270), SW982 (ATCC, cat. HTB-93, RRID:CVCL_1734), VA-ES-BJ (ATCC, cat. CRL-2138, RRID:CVCL_1785), NCI-H719 (ATCC, cat. CRL-5837, RRID:CVCL_1582), NCI-H196 (ATCC, cat. CRL-5823, RRID:CVCL_1509), NCI-H841 (ATCC, cat. CRL-5845, RRID:CVCL_1595), NCI-H1618 (ATCC, cat. CRL-5879, RRID:CVCL_1480), NCI-H1876 (ATCC, cat. CRL-5902, RRID:CVCL_1503), DMS 114 (ATCC, cat. CRL-2066; RRID:CVCL_1174), NCI-H211 (ATCC, cat. CRL-5824; RRID:CVCL_1529), and SW 1271 (ATCC, cat. CRL-2177, RRID:CVCL_1716). The small cell lung cancer cell line COR-L88 was purchased from Sigma-Aldrich (cat. 92031917-1VL, RRID:CVCL_1141). The non-small cell lung cancer cell lines NCI-H226 (RRID:CVCL_1544) and NCI-H322M (RRID:CVCL_1557) were established at the NCI and grown from internal seed stocks. Pooled donor human umbilical vein endothelial cells (HUVEC, Lonza, cat. CC-2519) and human mesenchymal stem cells (hMSC, Lonza, cat. PT-2501) were purchased from Lonza (Walkersville, MD).
Cell Culture. All cells were maintained in an incubator at 37 degrees C and 5% CO2 with 95% humidity. […]

Question: Which results are given for `Cn1ncnc1[C@H]1c2n[nH]c(=O)c3cc(F)cc(c23)N[C@@H]1c1ccc(F)cc1`?
Answer: viability, T/C (compound 0.00949 µM): 84.8% and 85.2% and 73.3%; viability, T/C (compound 0.03 µM): 105% and 79.8% and 70.5%; viability, T/C (compound 0.0949 µM): 91.6% and 74.7% and 66.9%; viability, T/C (compound 0.3 µM): 76.3% and 66% and 60.6%; viability, T/C (compound 0.949 µM): 67.1% and 53.2% and 46.5%; viability, T/C (compound 3 µM): 62.9% and 51.3% and 43.7%; IC50 (curve of compound): > 3 µM and 0.763 µM

Question: For `Cn1nnc2c(C(N)=O)ncn2c1=O`, which IC50 (compound alone, run of 11/07/2019) is on record?
Answer: > 100 µM and 30.7 µM

Question: `O=C(c1cc(Cc2n[nH]c(=O)c3ccccc23)ccc1F)N1CCN(C(=O)C2CC2)CC1` was tested. Which viability, T/C (compound 0.0949 µM) did it give?
Answer: 88.3% and 108% and 83.2%

Question: What about the viability, T/C (compound 0.3 µM) of the same molecule?
Answer: 75.1% and 84.1% and 60.3%

Question: And the viability, T/C (compound 0.949 µM)?
Answer: 79.3% and 91.9% and 51.5%

Question: And the viability, T/C (compound 3 µM)?
Answer: 95.2% and 96.5% and 51.2%

Question: And the viability, T/C (compound 9.49 µM)?
Answer: 68.4% and 72.2% and 27.7%

Question: What about the viability, T/C (compound 30 µM) of the same molecule?
Answer: 49.3% and 56.8% and 28%

Question: For `[2H]c1nc(C)nc([2H])c1-c1cc(NC[C@@H](C)c2cccc3c(C(=O)NC)ccnc23)ncn1`, which viability, T/C (compound 0.0316 µM) is on record?
Answer: 96.1% and 83.1% and 86.7%

Question: And the viability, T/C (compound 0.1 µM)?
Answer: 77.8% and 109% and 75.6%

Question: What about the viability, T/C (compound 0.316 µM) of the same molecule?
Answer: 82.6% and 102% and 90.4%

Question: What about the viability, T/C (compound 1 µM) of the same molecule?
Answer: 101% and 103% and 119%

Question: And the viability, T/C (compound 3.16 µM)?
Answer: 110% and 104% and 71.3%

Question: What about the viability, T/C (compound 10 µM) of the same molecule?
Answer: 101% and 100% and 67.4%

Question: What about the IC50 (curve of compound) of the same molecule?
Answer: > 10 µM

Question: Which results are given for `O=C(c1cc(Cc2n[nH]c(=O)c3ccccc23)ccc1F)N1CCN(C(=O)C2CC2)CC1` + CC[C@@]1(O)C(=O)OCc2c1cc1n(c2=O)Cc2cc3c(CN(C)C)c(O)ccc3nc2-1?
Answer: IC50 (curve of first compound, second compound 0.003 µM): > 30 µM; IC50 (curve of first compound, second compound 0.00949 µM): > 30 µM; IC50 (curve of first compound, second compound 0.03 µM): > 30 µM; IC50 (curve of first compound, second compound 0.0949 µM): > 30 µM; IC50 (curve of first compound, second compound 0.3 µM): < 0.0949 µM; viability, T/C (second compound 0.003 µM, first compound 0.0949 µM): 87.4%; viability, T/C (second compound 0.003 µM, first compound 0.3 µM): 78%; viability, T/C (second compound 0.003 µM, first compound 0.949 µM): 72.9%; viability, T/C (second compound 0.003 µM, first compound 3 µM): 68%; viability, T/C (second compound 0.003 µM, first compound 9.49 µM): 69.5%; viability, T/C (second compound 0.003 µM, first compound 30 µM): 58.2%; viability, T/C (second compound 0.00949 µM, first compound 0.0949 µM): 81.5%; viability, T/C (second compound 0.00949 µM, first compound 0.3 µM): 73.7%; viability, T/C (second compound 0.00949 µM, first compound 0.949 µM): 62.2%; viability, T/C (second compound 0.00949 µM, first compound 3 µM): 59.3%; viability, T/C (second compound 0.00949 µM, first compound 9.49 µM): 59.9%; viability, T/C (second compound 0.00949 µM, first compound 30 µM): 59%; viability, T/C (second compound 0.03 µM, first compound 0.0949 µM): 53.5%; viability, T/C (second compound 0.03 µM, first compound 0.3 µM): 59.2%; viability, T/C (second compound 0.03 µM, first compound 0.949 µM): 57%; viability, T/C (second compound 0.03 µM, first compound 3 µM): 58.4%; viability, T/C (second compound 0.03 µM, first compound 9.49 µM): 60.9%; viability, T/C (second compound 0.03 µM, first compound 30 µM): 55.3%; viability, T/C (second compound 0.0949 µM, first compound 0.0949 µM): 57.5%; viability, T/C (second compound 0.0949 µM, first compound 0.3 µM): 53.1%; viability, T/C (second compound 0.0949 µM, first compound 0.949 µM): 58.5%; viability, T/C (second compound 0.0949 µM, first compound 3 µM): 54.9%; viability, T/C (second compound 0.0949 µM, first compound 9.49 µM): 54.6%; viability, T/C (second compound 0.0949 µM, first compound 30 µM): 55%; viability, T/C (second compound 0.3 µM, first compound 0.0949 µM): 49.3%; viability, T/C (second compound 0.3 µM, first compound 0.3 µM): 50.7%; viability, T/C (second compound 0.3 µM, first compound 0.949 µM): 50.5%; viability, T/C (second compound 0.3 µM, first compound 3 µM): 46.3%; viability, T/C (second compound 0.3 µM, first compound 9.49 µM): 47.8%; viability, T/C (second compound 0.3 µM, first compound 30 µM): 38.6%
